Source: patent publication US20020045771A1, “Family of canadensol taxanes, the semi-synthetic preparation and therapeutic use thereof” (Institut National de la Recherche Scientifique, priority 1996, published 2002)
pIC50: −log10 of the molar value. “Also recorded” adds a separate entry of the source.

Key:
tubulin = assay: In vitro microtubule assay (tubulin polymerisation, absorbance at 350 nm); assay type: biochemical, calf; details: for concentration dependence of tubulin polymerisation: 5 μM and 10 μM (FIG. 2); for enhancement of tubulin polymerisation / antimitotic activity: same concentration (10 μM), FIG. 3; for tubulin polymerisation / antimitotic activity compared with paclitaxel: same concentration (FIGS. 1-4)
A2780 cells = assay: MTT cytotoxicity assay; assay type: cell-based, human; details: for % (absorbance relative to control) / Abs.: 72 h; for Abs.: absorbance at 570 nm (MTT); for pIC50: A2780, 72 h continuous treatment, MTT
Experimental: 1—Cell lines and cell culture. The human ovarian adenocarcinoma cell line A2780 was used to evaluate the antiproliferative activity of taxoids. These cells were grown in either RPMI medium supplemented with 10% fetal bovine serum and penicillin-streptomycin antibiotics. Cells were maintained in culture at 37° C. in an atmosphere of 5% CO2.
2—Cytotoxicity assay. Exponentially growing cells (2-3×10^3 cells/[…]) were seeded in 96-well plates and incubated for 16 h. Cells were then treated continuously with the extracts. 72 h later, cell survival was evaluated by replacing the culture media with […] fresh medium containing 10 mM 4-(2-hydroxyethyl)-1 -piperazineethamesulfonic acid buffer, pH 7.4. and […] of 2.5 mg/ml of 3-(4,5-dimethylthiazo-2-yl)-2,5-diphenyltetrazolium bromide (MTT) in PBS, pH 7.4, were then added. After as 3-4 h of incubation at 37° C., the medium and MTT were removed, and […] of DMSO was added to dissolve the precipitate of reduced MTT, followed by addition of […] glycine buffer (0.1M glycine plus 0.1M NaCl, pH 10.5). The formazan crystals were then dissolved and the absorbance was determined at 570 nm with a microplate reader (BIORAD, model 450). The MTT assay distinguished between viable and non-viable cells on the basis for the requirement of physiologically active mitochondria to metabolize the MTT only in viable cells. The IC50 was calculated as the concentration of drug causing a 50% inhibition in the absorbance compared to cells treated with solvent alone, Table I.

[1] = system: DA3 mammary adenocarcinoma tumors; assay: In vivo study using DA3 cell model (tumour volume); parameters: species or system mouse
Text: Origin: The DA3 cell line used in this study was derived from a hyperplastic mammary outgrowth (preneoplastic lesion) treated with 7,12-dimethylbenzanthracene (DMBA). DMBA-treated explant was then transplanted into the mammary glands of a female BALB/c mouse, and the resulting tumor was used to establish the DA3 cell line. DA3 is an immunogenic and non-metastatic mammary adenocarcinoma.
Source: The cell line used in our study was originally obtained from Dr. Medina in 1993. Stocks of these cells were generated and stored during early passages in liquid nitrogen. One vial from this early stock was cultured and cells generated were used to confirm the absence of viral and mycoplasma infections. Cells were then propagated and stocks of these cells were established and stored in liquid nitrogen for further studies with Dup compounds.
Cell culture: DA3 cells were maintained in RPMI 1640 medium supplemented with 1M mercaptoethanol, 1M Hepes buffer solution, […] sodium pyruvate, 200 mM L-glutamine, 10 mM non-essential amino acids, 1M vitamins, 10% fetal bovine serum, 1% penicillin-streptomycin. Cells were maintained at 37° C. under 5% CO2.
Animal. […] Mice were maintained at the Lady Davis Institute [LDI] Animal Care Facility.
Tumor cell inoculation and treatments. After one week acclimatisation, mice were randomized into a group of 5 per cage. Cages were randomly assigned to specific experimental groups. The mice were then labeled by numbers using the “ear punching” method. DA3 cells were transplanted subcutaneously to mice, as a suspension of tumor cells [1×10^6 viable cells per 0.1 ml], in the right flank. All animals were inoculated at the same site.
For tumor induction, cells were grown to 70% confluence in complete medium and then collected using trypsin-EDTA solution [0.05% trypsin, 0.53 mM EDTA-4Na in HBSS Ca^++, Mg^++ and NaHCO3 free]. cells were then centrifuged and washed three times with phosphate buffer solution and resuspended at a dilution of 0.1 to 1×10^6 cells/0.1 ml. […]

[2] = Toxicity in DA3 tumor-bearing BALB/c mice (body weight, mortality); details: given twice at 40 mg/kg, iv
Text: Animal. Female BALB/c mice (Charles River Inc.) were used to grow DA3 tumors. Mice were maintained at the Lady Davis Institute [LDI] Animal Care Facility.
Treatment was initiated when tumors become palpable. Drug was given twice (day 1 and day 3) by iv. Control animals were given the same volume of saline solution. The dose of each drug was normalized to mouse body weight.
Tumor measurement. animals were examined every day but the tumor growth was monitored every second or third day using calipers. Parameters measured are: tumor measured along the longest axis (length) and the perpendicular shortest axis (width) and the relative tumor volume (in cm^3) was calculated by the formula: [Length (cm)×(width cm)^2]/2. Tumors which reach the limit size permitted by the Canadian regulation on the use of laboratory animals, or showing any apparent distress or discomfort were immediately sacrificed independently of the experimental protocol [usually 2-3 cm^3 but this depend on animal status and the decision is taken by the animal room personnel]. Animals were subjected, on a daily basis, to general examination.

[3] = listed as semi-synthetic Canadensol

| SMILES | % (absorbance relative to control) (A2780 cells; 0.2 nM) [%] | Abs. (A2780 cells; 0.2 nM) | % (absorbance relative to control) (A2780 cells; 2 nM) [%] | Abs. (A2780 cells; 2 nM) | % (absorbance relative to control) (A2780 cells; 10 nM) [%] | Abs. (A2780 cells; 10 nM) | % (absorbance relative to control) (A2780 cells; 20 nM) [%] | Abs. (A2780 cells; 20 nM) | % (absorbance relative to control) (A2780 cells; 100 nM) [%] | Abs. (A2780 cells; 100 nM) | % (absorbance relative to control) (A2780 cells; 200 nM) [%] | Abs. (A2780 cells; 200 nM) | pIC50 (A2780 cells; Homo sapiens) | further results |
| --- | --- | --- | --- | --- | --- | --- | --- | --- | --- | --- | --- | --- | --- | --- |
| CC(=O)OC1C(=O)[C@]2(C)C(O)CC3OCC3(OC(C)=O)C2C(OC(=O)c2ccccc2)C2(O)CC(OC(=O)C(O)C(NC(=O)C(C)C)c3ccccc3)C(C)=C1C2(C)C (some centres unmarked) [Canadensol] | 100.00 | 1.598 | 94.12 | 1.504 | 77.97 | 1.246 | 50.81 | 0.812 | 1.63 | 0.026 | 1.13 | 0.018 | 7.67 | concentration dependence of tubulin polymerisation (tubulin): concentration dependent antimitotic effect; concentration dependence of tubulin polymerisation (tubulin; [3]): dose-dependent response; enhancement of tubulin polymerisation / antimitotic activity (tubulin): more effective; enhancement of tubulin polymerisation / antimitotic activity (tubulin; [3]): greater enhancement of tubulin polymerisation than semi-synthetic Taxcultine (ssT) or paclitaxel (P); tubulin polymerisation / antimitotic activity compared with paclitaxel (tubulin): more active than paclitaxel and taxcultine; also recorded: higher antimitotic activity than paclitaxel; tubulin polymerisation / antimitotic activity compared with paclitaxel (tubulin; [3]): higher degree of tubulin polymerisation than Paclitaxel; inhibiting the growth of A2780 (comparison) (A2780 cells; FIGS. 6, 7 and Table I): as active as paclitaxel or taxcultine; period in which antitumor effect was significant ([1]; given twice at 40 mg/kg, iv): significant from day 30 to day 40 of tumor growth; antitumor activity ([1]; given twice at 40 mg/kg, iv, FIG. 9): induce antitumor activity; toxic effect [2]: No toxic effect was observed |
| CC(=O)O[C@H]1C(=O)[C@@]2(C)[C@H]([C@H](OC(=O)c3ccccc3)[C@]3(O)C[C@H](OC(=O)[C@H](O)[C@@H](NC(=O)c4ccccc4)c4ccccc4)C(C)=C1C3(C)C)[C@]1(OC(C)=O)CO[C@@H]1C[C@@H]2O [paclitaxel] | 101.54 | 1.455 | 102.16 | 1.464 | 81.09 | 1.162 | 36.43 | 0.522 | 1.47 | 0.021 | 1.40 | 0.02 | 7.77 | antitumor activity ([1]; tolerable doses (20-40 mg/Kg), iv day 1 and day 3): no significant antitumor activity |
| CCCC(=O)N[C@@H](c1ccccc1)[C@@H](O)C(=O)O[C@H]1C[C@@]2(O)[C@@H](OC(=O)c3ccccc3)[C@@H]3[C@]4(OC(C)=O)CO[C@@H]4C[C@H](O)[C@@]3(C)C(=O)[C@H](OC(C)=O)C(=C1C)C2(C)C [taxcultine] | 100.00 | 1.535 | 100.07 | 1.536 | 71.21 | 1.093 | 36.09 | 0.554 | 2.08 | 0.032 | 1.43 | 0.022 | – | pIC50 (A2780 cells): 7.79 |
